According to publication PMC5333456, “Characterization of HSP90 isoforms in transformed bovine leukocytes infected with Theileria annulata” (Cellular Microbiology, 2016):

Legend:
[1] = target: T1, TA12105 (T. annulata cytoplasmic HSP90) (Theileria annulata, UniProt Q4UDU8); experiment: biochemical
[2] = target: T1, TA12105 (T. annulata cytoplasmic HSP90); experiment: intrinsic tryptophan fluorescence quenching (ATPase Km […]); type: binding

T1 sequence (Q4UDU8 whole entry): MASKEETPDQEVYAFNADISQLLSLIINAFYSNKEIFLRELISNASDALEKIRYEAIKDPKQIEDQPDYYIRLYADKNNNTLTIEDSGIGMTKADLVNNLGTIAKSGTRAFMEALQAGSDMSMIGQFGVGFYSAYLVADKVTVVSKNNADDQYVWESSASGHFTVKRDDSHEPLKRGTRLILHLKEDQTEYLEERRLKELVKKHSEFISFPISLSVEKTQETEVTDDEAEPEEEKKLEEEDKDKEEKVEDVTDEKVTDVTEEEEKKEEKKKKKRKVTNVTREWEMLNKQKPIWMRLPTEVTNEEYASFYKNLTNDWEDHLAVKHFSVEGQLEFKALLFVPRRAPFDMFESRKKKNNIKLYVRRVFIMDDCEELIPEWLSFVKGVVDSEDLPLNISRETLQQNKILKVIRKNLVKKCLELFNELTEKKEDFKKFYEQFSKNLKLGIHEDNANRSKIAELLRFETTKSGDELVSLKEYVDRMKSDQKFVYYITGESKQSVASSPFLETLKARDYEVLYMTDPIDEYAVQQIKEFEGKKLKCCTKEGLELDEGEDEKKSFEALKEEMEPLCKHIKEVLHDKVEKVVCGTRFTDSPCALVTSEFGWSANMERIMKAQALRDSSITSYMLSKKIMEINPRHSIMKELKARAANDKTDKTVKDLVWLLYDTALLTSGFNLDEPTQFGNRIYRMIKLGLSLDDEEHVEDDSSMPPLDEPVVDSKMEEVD

Row | Compound | Kd [1] | Kd [2]
1 | C=CCNC1=C2C[C@@H](C)C[C@H](OC)[C@H](O)[C@@H](C)/C=C(\C)[C@H](OC(N)=O)[C@@H](OC)/C=C\C=C(/C)C(=O)NC(=CC1=O)C2=O [17-AAG] | 7.67 µM | 
2 | Nc1ncnc2c1ncn2[C@@H]1O[C@H](COP(=O)(O)OP(=O)(O)OP(=O)(O)O)[C@@H](O)[C@H]1O [ATP] |  | 179 µM
